The results in this text go back to patent US7973051B2 (Hoffman-La Roche Inc., priority 2007, dated 2011).

The structures appear in SMILES notation. pIC50: −log10 of the molar value.

For this assay, the target named is T1, human liver FBPase (Homo sapiens, UniProt P09467).
T1 construct: made in house; host or cells: E. coli
T1 sequence (P09467 2-338 limits assumed): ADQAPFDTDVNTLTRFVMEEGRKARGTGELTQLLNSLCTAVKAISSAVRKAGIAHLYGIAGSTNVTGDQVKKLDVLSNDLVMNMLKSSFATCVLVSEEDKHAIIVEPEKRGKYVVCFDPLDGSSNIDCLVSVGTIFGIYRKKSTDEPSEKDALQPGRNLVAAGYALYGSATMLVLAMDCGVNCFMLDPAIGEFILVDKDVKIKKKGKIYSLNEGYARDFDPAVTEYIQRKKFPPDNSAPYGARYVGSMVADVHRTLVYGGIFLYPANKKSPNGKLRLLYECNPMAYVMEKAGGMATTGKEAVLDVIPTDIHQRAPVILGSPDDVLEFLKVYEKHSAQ
Briefly: FBPase assay: inorganic phosphate release (malachite green). The following applies: recombinant human liver FBPase, 50 μM fructose-1,6-bisphosphate, read-out at 620 nm. Type of assay: biochemical. How it is done:
The following tests were carried out for evaluating the inhibitory activity of the compounds of the present invention against human liver FBPase (Swissprot Data base reference P09467, entry F16P_HUMAN).
Human liver FBPase cDNA (NM_000507) was purchased from Origene Technologies, Inc, subcloned in a vector for expression in E. Coli., and sequenced. Recombinant human liver FBPase (hlFBPase) was purified according to the following protocol that uses heat denaturation similarly to that described by El-Maghrabi et. al. [El-Maghrabi, M. R. et al. “Isolation of a human liver fructose-1,6-bisphosphatase cDNA and expression of the protein in Escherichia coli.” J Biol Chem 268:9466-9472, 1993.]. Briefly, E. coli cells, transiently expressing very high levels of soluble and active human liver FBPase, were suspended in 20 mM Tris-HCl pH 7.5, 1 mM EDTA, 1 mM DTT and were lysed by French press. The soluble extract was heat denatured at 65° C. for 5 min, and insoluble, denatured proteins were removed by centrifugation. The extract was then applied to a BioRad Macro-Prep High Q column equilibrated with 20 mM Tris-HCl pH 7.5, 1 mM EDTA, 1 mM DTT and the flow-through (containing FBPase activity) was collected and applied to a BioRad Macro-Prep HS column equilibrated with 20 mM HEPES pH 7.2, 1 mM DTT. A gradient of increasing NaCl concentration was then applied to the HS column and fractions were collected. Fractions containing active FBPase were pooled and further purified by size exclusion chromatography on a Sephacryl S200 column equilibrated in 20 mM Tris-HCl pH 7.5, 150 mM NaCl, 1 mM EDTA, 1 mM DTT. Purity of the enzyme preparation was >90% as assessed by Mass spectrometry.
Recombinant human liver FBPase (hlFBPase) activity was assayed through measuring the inorganic phosphate release that results from the hydrolysis of Fructose-1,6-bisphosphate by the enzyme. As described by Baykov A. A. et al. in [Baykov A. A et al., “Malachite Green procedure for orthophosphate determination and its use in alkaline phosphatase-based enzyme immunoassays”. Anal. Biochem., 171:266-270, 1988], inorganic phosphate can be readily quantified by spectrophotometry at 620 nm after complexation with ammonium molybdate/malachite green reagent. Enzymatic reaction was carried out with modifications of the procedure described by Wright S. W. et al. [Wright S. W. et al., “Anilinoquinazoline inhibitors of Fructose-1,6-bisphosphatase bind to a novel allosteric site: synthesis, in vitro characterization, and X-ray crystallography”. J. Med. Chem. 45:3865-3877, 2002]. Specifically, the reaction was carried out in 96 well plates in a final volume of 100 μl in the presence or in the absence of allosteric inhibitors. Reaction was started adding 25 ng of hlFBPase to the reaction mixture containing 50 mM HEPES-KOH buffer pH 7.2, 2 mM MgCl2, 2 mM EDTA, 1 mM DTT, 50 μM fructose-1,6-bisphosphate and 1% DMSO. After 50 minutes incubation at room temperature, the phosphate released was allowed to form a colored complex for 10 min by adding 150 μl of ammonium molybdate/malachite green reagent containing 0.03% malachite green, 0.2% ammonium molybdate, 0.05% Triton X-100 and 0.7 M H2SO4 in water that was stirred for 30 min at room temperature and filtered through 0.2 μm filter. Under these conditions, the assay was linear with time and able to detect FBPase inhibition after spectrophotometric read-out at 620 nm.
As usually defined, the pIC50 is −log10 of the IC50, conventionally taken in molar units. In the case of `Cn1cc(S(=O)(=O)NC(=O)Nc2ncc(Br)s2)c2ccc(S(C)(=O)=O)cc21` [Example 30, N-[(5-Bromo-1,3-thiazol-2-yl)carbamoyl]-1-methyl-6-(methylsulfonyl)-1H-indole-3-sulfonamide], the pIC50 is 6.28.
To `COCCn1cc(S(=O)(=O)NC(=O)Nc2ncc(Br)s2)c2ccccc21` [Example 31, N-[(5-Bromo-1,3-thiazol-2-yl)carbamoyl]-1-(2-methoxyethyl)-1H-indole-3-sulfonamide] belongs 5.65.
In the case of `COC(=O)c1cccc2c(S(=O)(=O)NC(=O)Nc3ncc(Br)s3)cn(C)c12` [Example 32, Methyl 3-({[(5-bromo-1,3-thiazol-2-yl)carbamoyl]amino}sulfonyl)-1-methyl-1H-indole-7-carboxylate] it was 6.19.
Regarding `COc1cccc2c(S(=O)(=O)NC(=O)Nc3ncc(Br)s3)cn(C)c12` [Example 33, N-[(5-Bromo-1,3-thiazol-2-yl)carbamoyl]-7-methoxy-1-methyl-1H-indole-3-sulfonamide], the pIC50 is 7.15.
Turning to `Cn1cc(S(=O)(=O)NC(=O)Nc2ncc(Br)s2)c2cccc(Br)c21` [Example 34, 7-Bromo-N-[(5-bromo-1,3-thiazol-2-yl)carbamoyl]-1-methyl-1H-indole-3-sulfonamide], the pIC50 is 6.53.
As to `COCc1oc(S(=O)(=O)NC(=O)Nc2nc(C)c(Br)s2)cc1C` [Example 35, N-[(5-Bromo-4-methyl-1,3-thiazol-2-yl)carbamoyl]-5-(methoxymethyl)-4-methylfuran-2-sulfonamide], the pIC50 was 6.59.
Take `COCc1oc(S(=O)(=O)NC(=O)Nc2ncc(Br)s2)cc1C` [Example 36, N-[(5-Bromo-1,3-thiazol-2-yl)carbamoyl]-5-(methoxymethyl)-4-methylfuran-2-sulfonamide]: the pIC50 is 6.50.
To `O=C(Nc1ncc(Br)s1)NS(=O)(=O)c1cc2cccc(OCc3ccccc3)c2s1` [Example 37, 7-(Benzyloxy)-N-[(5-bromo-1,3-thiazol-2-yl)carbamoyl]-1-benzothiophene-2-sulfonamide] belongs 6.01; to `COCCOc1cccc2cc(S(=O)(=O)NC(=O)Nc3ncc(Br)s3)sc12` [Example 38, N-[(5-bromo-1,3-thiazol-2-yl)carbamoyl]-7-(2-methoxyethoxy)-1-benzothiophene-2-sulfonamide], 6.75.
Regarding `COc1cccc2cc(S(=O)(=O)NC(=O)Nc3ncc(Br)s3)sc12` [Example 39, N-[(5-bromo-1,3-thiazol-2-yl)carbamoyl]-7-methoxy-1-benzothiophene-2-sulfonamide], the pIC50 is 6.98.
Take `COc1cccc2cc(S(=O)(=O)NC(=O)Nc3ncc(Br)s3)n(C)c12` [Example 40, N-[(5-bromo-1,3-thiazol-2-yl)carbamoyl]-7-methoxy-1-methyl-1H-indole-2-sulfonamide]: the pIC50 was 6.48.
To `Cn1cc(S(=O)(=O)NC(=O)Nc2ncc(Br)s2)c2cccc(OCc3ccccc3)c21` [Example 41, 7-(Benzyloxy)-N-[(5-bromo-1,3-thiazol-2-yl)carbamoyl]-1-methyl-1H-indole-3-sulfonamide] belongs 6.91; to `COCCOc1cccc2c(S(=O)(=O)NC(=O)Nc3ncc(Br)s3)cn(C)c12` [Example 42, N-[(5-bromo-1,3-thiazol-2-yl)carbamoyl]-7-(2-methoxyethoxy)-1-methyl-1H-indole-3-sulfonamide], 6.43.
In the case of `COc1cccc2c(S(=O)(=O)NC(=O)Nc3ncc(Br)s3)c[nH]c12` [Example 43, N-[(5-bromo-1,3-thiazol-2-yl)carbamoyl]-7-methoxy-1H-indole-3-sulfonamide], the pIC50 was 5.39.
As to `COc1cnc(NC(=O)NS(=O)(=O)c2cn(C)c3c(OC)cccc23)s1` [Example 44, 7-Methoxy-N-[(5-methoxy-1,3-thiazol-2-yl)carbamoyl]-1-methyl-1H-indole-3-sulfonamide], the pIC50 was 5.88.
As to `COCCc1sc(S(=O)(=O)NC(=O)Nc2nc3cc(OC)ccc3s2)cc1C` [Example 45, N-[(5-Methoxy-1,3-benzothiazol-2-yl)carbamoyl]-5-(2-methoxyethyl)-4-methylthiophene-2-sulfonamide], the pIC50 was 6.40.
Turning to `COc1cnc(NC(=O)NS(=O)(=O)c2cn(C)c3c(OCCOC(C)=O)cccc23)s1` [Example 46, 2-{[3-({[(5-Methoxy-1,3-thiazol-2-yl)carbamoyl]amino}sulfonyl)-1-methyl-1H-indol-7-yl]oxy}ethyl acetate], the pIC50 is 5.46.
To `COc1cnc(NC(=O)NS(=O)(=O)c2cn(C)c3c(OCCO)cccc23)s1` [Example 47, 7-(2-Hydroxyethoxy)-N-[(5-methoxy-1,3-thiazol-2-yl)carbamoyl]-1-methyl-1H-indole-3-sulfonamide] belongs 6.13; to `CC(=O)OCCOc1cccc2c(S(=O)(=O)NC(=O)Nc3ncc(Br)s3)cn(C)c12` [Example 48, 2-{[3-({[(5-Bromo-1,3-thiazol-2-yl)carbamoyl]amino}sulfonyl)-1-methyl-1H-indol-7-yl]oxy}ethyl acetate], 6.37.
`Cn1cc(S(=O)(=O)NC(=O)Nc2ncc(Br)s2)c2cccc(OCCO)c21` [Example 49, N-[(5-Bromo-1,3-thiazol-2-yl)carbamoyl]-7-(2-hydroxyethoxy)-1-methyl-1H-indole-3-sulfonamide]: the pIC50 was 6.98.
For `CCOC(=O)COc1cccc2c(S(=O)(=O)NC(=O)Nc3ncc(Br)s3)cn(C)c12` [Example 50, Ethyl {[3-({[(5-bromo-1,3-thiazol-2-yl)carbamoyl]amino}sulfonyl)-1-methyl-1H-indol-7-yl]oxy}acetate], the negative-log IC50 (pIC50) was 6.67.
`Cn1cc(S(=O)(=O)NC(=O)Nc2ncc(Br)s2)c2cccc(OCC(N)=O)c21` [Example 51, 2-{[3-({[(5-Bromo-1,3-thiazol-2-yl)carbamoyl]amino}sulfonyl)-1-methyl-1H-indol-7-yl]oxy}acetamide]: the pIC50 was 6.86.
To `COc1sc(NC(=O)NS(=O)(=O)c2cn(C)c3c(OC)cccc23)nc1C` [Example 52, 7-Methoxy-N-[(5-methoxy-4-methyl-1,3-thiazol-2-yl)carbamoyl]-1-methyl-1H-indole-3-sulfonamide] belongs 6.11; to `COc1sc(NC(=O)NS(=O)(=O)c2cn(C)c3c(OCC(N)=O)cccc23)nc1C` [Example 53, 2-{[3-({[(5-Methoxy-4-methyl-1,3-thiazol-2-yl)carbamoyl]amino}sulfonyl)-1-methyl-1H-indol-7-yl]oxy}acetamide], 6.12; to `COc1cnc(NC(=O)NS(=O)(=O)c2cc3cccc(OC)c3s2)s1` [Example 54], 5.89.
For `COc1ccc2nc(NC(=O)NS(=O)(=O)c3cc(C)c(CCOC(C)=O)s3)sc2n1` [Example 55, 2-[5-({[(5-methoxy[1,3]thiazolo[5,4-b]pyridin-2-yl)carbamoyl]amino}sulfonyl)-3-methyl-2-thienyl]ethyl acetate], the pIC50 is 6.21.
In the case of `COc1ccc2nc(NC(=O)NS(=O)(=O)c3cc(C)c(CCO)s3)sc2n1` [Example 56, 5-(2-Hydroxyethyl)-N-[(5-methoxy[1,3]thiazolo[5,4-b]pyridin-2-yl)carbamoyl]-4-methylthiophene-2-sulfonamide] it was 6.27.
